Here are results for 34 compounds from patent US8022203B2, “Amino derivatives of beta-homoandrostanes and beta-heteroandrostanes” (Sigma-Tau Industrie Farmaceutiche Riunite S.p.A., priority 2006, dated 2011).

Molecules are shown by their SMILES. Counter-ions that a name gives are not always drawn. Like-named read-outs stand apart in the source and are kept apart here.

The test system of data set [1] is anesthetized guinea-pig. As to the kind of experiment: Inotropic effect and lethal dose, slow intravenous infusion in anesthetized guinea-pig. The note with it: for % decrease from Emax after 20 min from the end of the infusion: 20 minutes after the end of the infusion; for Maximum dose infused: in the survived animals; for Dead/treated / ED80 (dose increasing +dP/dTmax by 80%) / EDmax (dose inducing maximum positive inotropic effect) / Emax % increase in +dP/dTmax: slow intravenous infusion over 90 minutes; for safety ratio compared with reference cardiotonics / duration of the inotropic effect: in words; for duration of the inotropic effect: after stopping the infusion.

Data set [2] has as its target Na^+,K^+-ATPase (Canis lupus familiaris, UniProt P50997). Nature of the data set: Dog kidney Na+,K+-ATPase inhibition (hydrolysis of 32P-ATP). The class given is biochemical.
Data set [3] relates to spontaneous hypertensive rats of the Milan (MHS). As to the kind of experiment: Systolic blood pressure fall in spontaneous hypertensive rats (MHS), tail-cuff. The data set is classed as in vivo, rat. The note with it: 10 μg/kg/os daily, five weeks, vs vehicle control.
Setting [4] is: dog kidney enzyme, read-out: Na^+,K^+-ATPase Inhibition IC50.
Where [5] appears, read: Na^+,K^+-ATPase Inhibition IC50.

Regarding `C[C@H]1O[C@@H](O[C@H]2[C@@H](O)C[C@H](O[C@H]3[C@@H](O)C[C@H](O[C@H]4CC[C@@]5(C)[C@H](CC[C@@H]6[C@@H]5C[C@@H](O)[C@]5(C)[C@@H](C7=CC(=O)OC7)CC[C@]65O)C4)O[C@@H]3C)O[C@@H]2C)C[C@H](O)[C@@H]1O` [digoxin, reference compound], in data set [1], the “% decrease from Emax after 20 min from the end of the infusion” value (from here on “% decrease from Emax after 20 min”) is on record as 100%, the Maximum dose infused is 1.16 µmol/kg, the Dead/treated is 10/10 and the “ED80 (dose increasing +dP/dTmax by 80%)” value amounted to 0.29 µmol/kg. Also, in data set [1], the “EDmax (dose inducing maximum positive inotropic effect)” value (“EDmax” below) amounted to 0.65 µmol/kg and the “Emax % increase in +dP/dTmax” value is recorded as 158%. Also, the “Lethal dose/ED80” value in data set [1] (calculated in the died animals) is 4.0.
For `CC12CCC3C(CC(=O)OC4CC(=NOCCN)CCC43C)C1CCC2=O` (stereo not shown) [I-bh, (E,Z) 3-(2-Aminoethoxyimino)-6-oxa-7a-homoandrostane-7,17-dione fumarate], the IC50 (commonly the concentration that inhibits the measured activity by half) in data set [2] (setting [4]) came to 240 nM.
`CC12CCC3C(CCNC4CC(=NOCCN)CCC43C)C1CCC2=O` (stereo not shown) [I-ak, (E,Z)—3-(2-Aminoethoxyimino)-6-aza-7a-homoandrostane-17-one dihydrochloride]: the IC50 in data set [2] (setting [4]) was found to be 29000 nM.
`CNCCCON=C1CCC2(C)C(C1)C(=O)OCC1C3CCC(=O)C3(C)CCC12` (stereo not shown) [I-bf, (E,Z)-3-(3-N-Methylaminopropoxyimino)-7-oxa-7a-homoandrostane-6,17-dione hydrochloride]: in data set [2] (setting [5]), the IC50 came to 1900 nM.
As to `CC12CCC3C(CCOC4CC(=NOCCN)CCC43C)C1CCC2=O` (stereo not shown) [I-bs, (E,Z)-3-(2-Aminoethoxyimino)-6-oxa-7a-homoandrostane-17-one hydrochloride], the IC50 in data set [2] (setting [4]) was determined as 130 nM.
In data set [2] (setting [5]), `CNCCCON=C1CCC2(C)C(C1)OC(=O)CC1C3CCC(=O)C3(C)CCC12` (stereo not shown) [I-bq, (E,Z)-3-(3-N-Methylaminopropoxyimino)-6-oxa-7a-homoandrostane-7,17-dione fumarate] came in with an IC50 of 3700 nM.
In turn, `CNCCCON=C1CCC2(C)C(CC(=O)OC3C4CCC(=O)C4(C)CCC32)C1` (stereo not shown) [I-bj, (E,Z) 3-(3-N-Methylaminopropoxyimino)-7a-oxa-7a-homoandrostane-7,17-dione hydrochloride] had an IC50 in data set [2] (setting [5]) of 2200 nM.
For the compound `CC12CCC3C(OC(=O)CC4CC(=NOC5CCNC5)CCC43C)C1CCC2=O` [I-bk, (E,Z) 3-[3-(R)-Pyrrolidinyl]oxyimino-7a-oxa-7a-homoandrostane-7,17-dione hydrochloride], the IC50 in data set [2] (setting [5]) was 360 nM. In data set [1], the “% decrease from Emax after 20 min” value was 50%; the Maximum dose infused stood at 25.3 µmol/kg; the “safety ratio compared with reference cardiotonics” value was “higher safety ratios than those displayed by digitoxin and compd 22b”; the “duration of the inotropic effect” value is on record as “prolonged action”. In data set [1], the Dead/treated is given as 0/3, the “ED80 (dose increasing +dP/dTmax by 80%)” value was determined as 2.11 µmol/kg, the “EDmax” value stood at 23.9 µmol/kg and the “Emax % increase in +dP/dTmax” value turned out to be 254%.
In turn, `CC12CCC3C(CCCC4CC(=NOCCN)CCC43C)C1CCC2=O` (stereo not shown) [I-bo, (E,Z) 3-(2-Aminoethoxyimino)-B-homoandrostane-17-one hydrochloride] had an IC50 in data set [2] (setting [5]) of 71 nM.
Regarding `CC12CCC3C(CC(=O)NC4CC(=NOCCN)CCC43C)C1CCC2=O` (stereo not shown) [I-bn, (Z) 3-(2-Aminoethoxyimino)-6-aza-7a-homoandrostane-7,17-dione fumarate], in data set [2] (setting [5]), the IC50 is 61000 nM.
On to `CC12CCC3C(CC(=S)NC4CC(=NOCCN)CCC43C)C1CCC2=O` (stereo not shown) [I-aj, (E,Z) 3-(2-Aminoethoxyimino)-6-aza-7a-homo-7-thioxoandrostane-17-one hydrochloride], for which the IC50 in data set [2] (setting [4]) was found to be 6500 nM.
In turn, `CC12CCC3C(COC(=O)C4CC(=NOCCN)CCC43C)C1CCC2=O` (stereo not shown) [I-be, (E,Z) 3-(2-Aminoethoxyimino)-7-oxa-7a-homoandrostane-6,17-dione hydrochloride] showed an IC50 in data set [2] (setting [5]) of 1600 nM.
For `CC12CCC3C(NCCC4CC(=NOCCN)CCC43C)C1CCC2=O` (stereo not shown) [I-ay, (E,Z) 3-(2-Aminoethoxyimino)-7a-aza-7a-homoandrostane-17-one difumarate], the IC50 in data set [2] (setting [4]) was found to be 400 nM.
As to `CC12CCC3C(CCNC4CC(=NOC5CCNC5)CCC43C)C1CCC2=O` [I-am, (E,Z) 3-[3-(R)-Pyrrolidinyl]oxyimino-6-aza-7a-homoandrostane-17-one dihydrochloride], the IC50 in data set [2] (setting [5]) was 9500 nM.
In the case of `CNCCCON=C1CCC2(C)C(CC(=O)NC3C4CCC(=O)C4(C)CCC32)C1` (stereo not shown) [I-aw, (E,Z) 3-(3-N-Methylaminopropoxyimino)-7a-aza-7a-homoandrostane-7,17-dione hydrochloride], the IC50 in data set [2] (setting [4]) was found to be 9900 nM.
Consider `CC12CCC3C(C(=O)OC4CC(=NOCCN)CCC43C)C1CCC2=O` (stereo not drawn) [I-bl, (E,Z) 3-(2-Aminoethoxyimino)-6-oxa-5β-androstane-7,17-dione hydrochloride], for which, in data set [2] (setting [4]), the IC50 was found to be 2500 nM.
On the same count and under the same terms, the same measure for `CC12CCC3C(OC(=O)CC4CC(=NOCCN)CCC43C)C1CCC2=O` (stereo not shown) [I-bi, (E,Z) 3-(2-Aminoethoxyimino)-7a-oxa-7a-homoandrostane-7,17-dione hydrochloride]: 850 nM.
Regarding `CC12CCC3C(OCCC4CC(=NOCCN)CCC43C)C1CCC2=O` (stereo not shown) [I-bt, (E,Z)-3-(2-Aminoethoxyimino)-7a-oxa-7a-homoandrostane-17-one hydrochloride], the IC50 in data set [2] (setting [4]) came out at 160 nM.
Take `CC12CCC3C(C(=O)NC4CC(=NOCCN)CCC43C)C1CCC2=O` (stereo not shown) [I-bu, (E,Z) 3-(2-Aminoethoxyimino)-6-azaandrostane-7,17-dione hydrochloride]: the IC50 in data set [2] (setting [4]) turned out to be 1100 nM.
In the case of `CON=C1CC2C3CCC(=O)C3(C)CCC2C2(C)CCC(=NOCCN)CC2N1` (stereo not shown) [I-at, (E,Z) 3-(2-Aminoethoxyimino)-6-aza-7a-homo-7-(Z)-methoxyimino-androstane-17-one hydrochloride], the half-inhibitory concentration (IC50) in data set [2] (setting [4]) is 48000 nM.
For the compound `CC12CCC3C(COC(=O)C4CC(=NOC5CCNC5)CCC43C)C1CCC2=O` [I-bg, (E,Z) 3-[3-(R)-Pyrrolidinyl]oxyimino-7-oxa-7a-homoandrostane-6,17-dione hydrochloride], half-maximal inhibition in data set [2] (setting [5]) (IC50) required 810 nM.
As to `CC12CCC3C(CC(=O)NC4CC(=NOCCN)CCC43C)C1CCC2=O` (stereo not shown) [I-bm, (E) 3-(2-Aminoethoxyimino)-6-aza-7a-homoandrostane-7,17-dione fumarate], the IC50 in data set [2] (setting [5]) is 25000 nM.
For `CNCCCON=C1CCC2(C)C(CCNC3C4CCC(=O)C4(C)CCC32)C1` (stereo not shown) [I-az, (E,Z) 3-(3-N-Methylaminopropoxyimino)-7a-aza-7a-homoandrostane-17-one difumarate], the IC50 in data set [2] (setting [4]) is 1800 nM.
In the case of `CC12CCC3C(CC(=O)OC4CC(=NOC5CCNC5)CCC43C)C1CCC2=O` [I-br, (E,Z) 3-[3-(R)-Pyrrolidinyl]oxyimino-6-oxa-7a-homoandrostane-7,17-dione fumarate], the IC50 in data set [2] (setting [5]) was 1300 nM.
For the compound `CC12CCC3C(C(=O)NC4CC(=NOC5CCNC5)CCC43C)C1CCC2=O` [I-bv, (E,Z) 3-[3-(R)-Pyrrolidinyl]oxyimino-6-azaandrostane-7,17-dione fumarate], in data set [2] (setting [5]), 1400 nM corresponded to half-maximal inhibition (IC50).
In the case of `CC12CCC3C(NC(=O)CC4CC(=NOCCN)CCC43C)C1CCC2=O` (stereo not shown) [I-av, (E,Z) 3-(2-Aminoethoxyimino)-7a-aza-7a-homoandrostane-7,17-dione hydrochloride], the IC50 in data set [2] (setting [4]) is 27000 nM.
Regarding `CC12CCC3C(CC(=O)NC4CC(=NOC5CCNC5)CCC43C)C1CCC2=O` [I-ad, (E,Z) 3-[3-(R)-Pyrrolidinyl]oxyimino-6-aza-7a-homoandrostane-7,17-dione fumarate], the IC50 in data set [2] (setting [5]) is 950 nM.
As to `CNCCCON=C1CCC2(C)C(C1)NC(=O)CC1C3CCC(=O)C3(C)CCC12` (stereo not shown) [I-ac, (E,Z) 3-(3-N-Methylaminopropoxyimino)-6-aza-7a-homoandrostane-7,17-dione fumarate], in data set [3], the SBP - % was 4.2% and the “SBP - mm Hg (decrease in systolic blood pressure)” value is reported as 7.2 +/− 0.7 mm Hg. The IC50 in data set [2] (setting [4]) turned out to be 19000 nM.
Consider `CC12CCC3C(CCN(C=O)C4CC(=NOCCN)CCC34C)C1CCC2=O` (stereo not shown) [I-an, (E,Z) 3-(2-Aminoethoxyimino)-6-aza-6-formyl-7a-homoandrostane-17-one hydrochloride], for which the IC50 in data set [2] (setting [4]) was determined as 23000 nM.
Regarding `CON=C1CC2C3CCC(=O)C3(C)CCC2C2(C)CCC(=NOC3CCNC3)CC2N1` [I-au, 3-(E,Z)-[3-(R)-Pyrrolidinyl]oxyimino-6-aza-7a-homo-7-(Z)-methoxyimino-androstane-17-one hydrochloride], in data set [2] (setting [5]), the IC50 stood at 68000 nM.
As to `CC12CCC3C(NC(=O)CC4CC(=NOC5CCNC5)CCC43C)C1CCC2=O` [I-ax, (E,Z) 3-[3-(R)-Pyrrolidinyl]oxyimino-7a-aza-7a-homoandrostane-7,17-dione hydrochloride], in data set [2] (setting [5]), inhibition was half-maximal at 4800 nM (IC50).
On to `CC12CCC3C(CCCC4CC(=NOC5CCNC5)CCC43C)C1CCC2=O` [I-bp, (E,Z)-3-[3-(R)-Pyrrolidinyl]oxyimino-B-homoandrostane-17-one hydrochloride], for which, in data set [2] (setting [5]), the IC50 is 40 nM.
Consider `CC12CCC3C(NCCC4CC(=NOC5CCNC5)CCC43C)C1CCC2=O` [I-ba, (E,Z) 3-[3-(R)-Pyrrolidinyl]oxyimino-7a-aza-7a-homoandrostane-17-one Difumarate], for which, in data set [2] (setting [5]), the IC50 is 140 nM. Besides, in data set [1], the “% decrease from Emax after 20 min” value was found to be 55%; the Maximum dose infused turned out to be 50.0 µmol/kg; the “safety ratio compared with reference cardiotonics” value is “higher safety ratios than those displayed by digitoxin and compd 22b”; the “duration of the inotropic effect” value is recorded as “prolonged action”. Besides, in data set [1], the Dead/treated is given as 0/3, the “ED80 (dose increasing +dP/dTmax by 80%)” value was determined as 1.68 µmol/kg, the “EDmax” value was 10.1 µmol/kg and the “Emax % increase in +dP/dTmax” value is listed as 218%.
For the compound `CC12CCC3C(C1CCC2=O)N(C=O)CCC1CC(=NOC2CCNC2)CCC13C` [I-bd, (E,Z) 3-[3-(R)-Pyrrolidinyl]oxyimino-7a-aza-7a-formyl-7a-homoandrostane-17-one hydrochloride], the IC50 in data set [2] (setting [4]) came to 57000 nM.
